# Biological target: T1, human F508del CFTR (Homo sapiens, UniProt P13569, DEL508-508)
# T1 construct: expressed in transfected cells; host or cells: Fisher Rat Thyroid (FRT) cells
# Assay: CFTR-YFP High Throughput Assay
# Type: cell-based
# Conditions: EMax normalized to the positive control; FRT cells expressing human F508del CFTR and YFP; read-out: % Efficacy
# Protocol: Assays for Detecting and Measuring the Effect of Compounds on F508del-CFTR Channels CFTR-YFP High Throughput Assay-CFTR Corrector Protocol:
# This protocol is designed to selectively screen small molecule compounds for F508del CFTR corrector activities in the HTS YFP (yellow fluorescent protein) flux assay. In this protocol, the cells are incubated with testing compounds for 24 hours, washed with PBS, stimulated with forskolin and a standard potentiator, and fluorescence in each plate well is measured kinetically read on a 384-well HTS plate reader, such as the Hamamatsu FDSS-6000.
# YFP fluorescence intensity values are acquired at high speed before and after iodide buffer is injected to the assay cells. Iodide enters the cells via active CFTR channels in the plasma membrane, and quenches the YFP fluorescence. The rate of fluorescence quenching is proportionate to the total CFTR activity in the cell membrane. F508del CFTR correctors increase the number of CFTR molecules in the testing cell plasma membrane, and thereby accelerate YFP quenching.
# This method was initially developed for bench top plate readers (Galietta et al., 2001), and was adapted to the HTS format (Sui et al. Assay Drug Dev. Technol. 2010).
# Fisher Rat Thyroid (FRT) cells stably expressing both human F508del CFTR and a halide-sensitive yellow fluorescent protein (YFP-H148Q/I152L 25,22) (Galietta et al. Am. J. Physiol Cell Physiol 281(5), C1734, 2001) were cultured on plastic surface in Coon's modified Ham's F12 medium supplemented with FBS 10%, L-glutamine 2 mM, penicillin 100 U/ml, and streptomycin 100 µg/ml. G418 (0.75-1.0 mg/ml) and zeocin (3.2 ug/ml) were used for selection of FRT cells expressing F508del CFTR and YFP. For primary screening, FRT cells were plated into 384-well black wall, transparent bottom microtiter plates (Costar; Corning Inc.) at a cell density of 20,000-40,000 per well. Test compound was applied to the cells at varying concentrations ranging from 2 nM-40 μM in either a 2-fold or 3-fold dilution series. Cells were incubated in a cell culture incubator at 37° C. with 5% CO2 for 24-26 h. Assay plates were washed with DPBS media (Thermo, cat# SH30028.02) to remove unbound cells and compound. Stimulation media (25 μL) containing 20 μM Forskolin & 30 μM P3 [6-(Ethyl-phenyl-sulfonyl)-4-oxo-1,4-dihydro-quinoline-3-carboxylic acid 2-methoxy-benzylamide] in Hams F-12 coon's modified media was added to the plate wells and incubated at room temperature for 60-120 min. […] (10 mM HEPES, 1 mM MgCl2, 3 mM KCl, 1 mM CaCl2, 150 mM NaI) was then added and fluorescence quench curves (Excitation 500 nm/Emission 540 nm; exposure 136 ms) were immediately recorded on an FDSS-6000 plate reader (Hamamatsu). Quench rates were derived from least squares fitting of the data as described by Sui et al (2010).
# CFTR-YFP High Throughput Assay-CFTR Potentiator Protocol:
# This protocol is designed to selectively screen small molecule compounds for F508del CFTR potentiator activities in the HTS YFP flux assay. Such compounds act acutely to stimulate CFTR already expressed on the membrane surface. In this protocol, the cells are incubated at 27° C. for 24 hours to homogeneously boost F508del CFTR expression in the cell membrane (low temperature correction), washed with PBS, treated with test compound, and CFTR activity is stimulated with forskolin for 1-2 hr. Measurement of ion flux is initiated by addition of iodide-containing buffer, and YFP quenching is kinetically recorded using a 384-well HTS plate reader, such as the Hamamatsu FDSS-6000.
# YFP fluorescence intensity values are acquired at high speed over a 1 min time course before and after iodide buffer is injected to the assay cells. Iodide enters the cells via active CFTR channels in the plasma membrane, and quenches the YFP fluorescence. The rate of fluorescence quenching is proportionate to total CFTR activity in the cell membrane. […]
# T1 sequence (P13569 with tags, fused parts or gaps DEL508-508): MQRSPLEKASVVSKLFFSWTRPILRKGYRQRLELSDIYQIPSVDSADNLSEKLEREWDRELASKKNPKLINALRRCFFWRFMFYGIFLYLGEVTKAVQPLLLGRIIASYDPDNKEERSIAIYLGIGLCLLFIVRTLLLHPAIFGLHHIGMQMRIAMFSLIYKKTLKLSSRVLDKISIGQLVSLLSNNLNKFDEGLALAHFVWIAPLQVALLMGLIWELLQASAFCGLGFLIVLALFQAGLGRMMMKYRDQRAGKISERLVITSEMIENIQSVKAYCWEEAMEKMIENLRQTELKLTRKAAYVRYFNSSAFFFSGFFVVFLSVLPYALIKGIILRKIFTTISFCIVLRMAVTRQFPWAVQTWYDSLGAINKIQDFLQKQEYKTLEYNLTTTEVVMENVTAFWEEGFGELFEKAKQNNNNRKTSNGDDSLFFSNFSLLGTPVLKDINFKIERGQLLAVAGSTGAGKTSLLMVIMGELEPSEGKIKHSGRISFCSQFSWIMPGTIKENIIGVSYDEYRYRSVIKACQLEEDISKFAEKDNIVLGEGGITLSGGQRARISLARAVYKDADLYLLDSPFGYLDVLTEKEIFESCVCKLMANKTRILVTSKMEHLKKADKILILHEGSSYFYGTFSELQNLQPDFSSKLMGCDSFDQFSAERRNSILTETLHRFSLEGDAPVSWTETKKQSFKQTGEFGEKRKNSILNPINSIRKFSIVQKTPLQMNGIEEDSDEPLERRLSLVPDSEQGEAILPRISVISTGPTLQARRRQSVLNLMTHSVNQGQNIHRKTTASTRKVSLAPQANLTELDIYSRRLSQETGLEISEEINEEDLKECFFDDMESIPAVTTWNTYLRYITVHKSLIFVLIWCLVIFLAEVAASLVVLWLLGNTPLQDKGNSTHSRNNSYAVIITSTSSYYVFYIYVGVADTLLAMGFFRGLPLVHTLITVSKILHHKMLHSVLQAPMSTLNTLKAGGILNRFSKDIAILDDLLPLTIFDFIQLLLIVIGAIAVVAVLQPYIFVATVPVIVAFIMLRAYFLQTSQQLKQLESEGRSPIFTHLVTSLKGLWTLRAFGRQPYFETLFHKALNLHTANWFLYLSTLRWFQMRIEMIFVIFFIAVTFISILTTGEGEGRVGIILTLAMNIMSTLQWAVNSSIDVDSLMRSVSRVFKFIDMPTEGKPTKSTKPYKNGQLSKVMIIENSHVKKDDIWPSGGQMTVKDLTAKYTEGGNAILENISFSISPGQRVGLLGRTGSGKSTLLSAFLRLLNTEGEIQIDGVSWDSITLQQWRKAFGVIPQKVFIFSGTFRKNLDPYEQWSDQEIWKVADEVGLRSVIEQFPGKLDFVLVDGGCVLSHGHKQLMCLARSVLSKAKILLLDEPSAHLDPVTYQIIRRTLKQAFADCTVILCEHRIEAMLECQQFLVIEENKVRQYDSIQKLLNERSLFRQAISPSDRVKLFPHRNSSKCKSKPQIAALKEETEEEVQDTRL
row,Emax [%],SMILES
1,30 to 80,"CCc1ccc(N(CC)C(=O)Cn2nc(Cc3cccnc3)c3ccc(C)cc3c2=O)cc1 [Example 28, N-ethyl-N-(4-ethylphenyl)-2-(7-methyl-1-oxo-4-(pyridin-3-ylmethyl)phthalazin-2(1H)-yl)acetamide]"
2,30 to 80,"CCc1ccc(N(CC)C(=O)Cn2nc(Cc3cccnc3)c3cc(C)ccc3c2=O)cc1 [Example 29, N-ethyl-N-(4-ethylphenyl)-2-(6-methyl-1-oxo-4-(pyridin-3-ylmethyl)phthalazin-2(1H)-yl)acetamide]"
3,30 to 80,"CCc1ccc(N(CC)C(=O)Cn2nc(Cc3cccnc3)c3cccc(C)c3c2=O)cc1 [Example 30, N-ethyl-N-(4-ethylphenyl)-2-(8-methyl-1-oxo-4-(pyridin-3-ylmethyl)phthalazin-2(1H)-yl)acetamide]"
4,30 to 80,"CCc1ccc(N(CC)C(=O)Cn2nc(Cc3cccnc3)c3c(C)cccc3c2=O)cc1 [Example 31, N-ethyl-N-(4-ethylphenyl)-2-(5-methyl-1-oxo-4-(pyridin-3-ylmethyl)phthalazin-2(1H)-yl)acetamide]"
5,10 to 30,"CCc1ccc(N(CC)C(=O)Cn2nc(Cc3cccnc3)c3cc(OC)c(OC)cc3c2=O)cc1 [Example 32, 2-(6,7-dimethoxy-1-oxo-4-(pyridin-3-ylmethyl)phthalazin-2(1H)-yl)-N-ethyl-N-(4-ethylphenyl)acetamide]"
6,30 to 80,"CCc1ccc(N(CC)C(=O)Cn2nc(Cc3cccnc3)c3ccc(C(C)(C)C)cc3c2=O)cc1 [Example 33, 2-(7-(tert-butyl)-1-oxo-4-(pyridin-3-ylmethyl)phthalazin-2(1H)-yl)-N-ethyl-N-(4-ethylphenyl)acetamide]"
7,30 to 80,"CCc1ccc(N(CC)C(=O)Cn2nc(Cc3cccnc3)c3cc(C(C)(C)C)ccc3c2=O)cc1 [Example 34, 2-(6-(tert-butyl)-1-oxo-4-(pyridin-3-ylmethyl)phthalazin-2(1H)-yl)-N-ethyl-N-(4-ethylphenyl)acetamide]"
8,30 to 80,"CCc1ccc(N(CC)C(=O)Cn2nc(Cc3cccnc3)c3ccc(OC)cc3c2=O)cc1 [Example 35, N-ethyl-N-(4-ethylphenyl)-2-(7-methoxy-1-oxo-4-(pyridin-3-ylmethyl)phthalazin-2(1H)-yl)acetamide]"
9,30 to 80,"CCc1ccc(N(CC)C(=O)Cn2nc(Cc3cccnc3)c3cc(OC)ccc3c2=O)cc1 [Example 36, N-ethyl-N-(4-ethylphenyl)-2-(6-methoxy-1-oxo-4-(pyridin-3-ylmethyl)phthalazin-2(1H)-yl)acetamide]"
10,30 to 80,"CCc1ccc(N(CC)C(=O)Cn2nc(Cc3cccnc3)c3cccc(F)c3c2=O)cc1 [Example 37, N-ethyl-N-(4-ethylphenyl)-2-(8-fluoro-1-oxo-4-(pyridin-3-ylmethyl)phthalazin-2(1H)-yl)acetamide]"
11,30 to 80,"CCc1ccc(N(CC)C(=O)Cn2nc(Cc3cccnc3)c3cc(Cl)c(Cl)cc3c2=O)cc1 [Example 38, 2-(6,7-dichloro-1-oxo-4-(pyridin-3-ylmethyl)phthalazin-2(1H)-yl)-N-ethyl-N-(4-ethylphenyl)acetamide]"
12,30 to 80,"CCc1ccc(N(CC)C(=O)Cn2nc(Cc3cccnc3)c3ccc(Cl)cc3c2=O)cc1 [Example 39, 2-(7-chloro-1-oxo-4-(pyridin-3-ylmethyl)phthalazin-2(1H)-yl)-N-ethyl-N-(4-ethylphenyl)acetamide]"
13,30 to 80,"CCc1ccc(N(CC)C(=O)Cn2nc(Cc3cccnc3)c3cc(Cl)ccc3c2=O)cc1 [Example 40, 2-(6-chloro-1-oxo-4-(pyridin-3-ylmethyl)phthalazin-2(1H)-yl)-N-ethyl-N-(4-ethylphenyl)acetamide]"
14,30 to 80,"CCc1ccc(N(CC)C(=O)Cn2nc(Cc3cccnc3)c3ccncc3c2=O)cc1 [Example 41, N-ethyl-N-(4-ethylphenyl)-2-(4-oxo-1-(pyridin-3-ylmethyl)pyrido[3,4-d]pyridazin-3(4H)-yl)acetamide]"
15,10 to 30,"CCc1ccc(N(CC)C(=O)Cn2nc(Cc3cccnc3)c3cnccc3c2=O)cc1 [Example 42, N-ethyl-N-(4-ethylphenyl)-2-(1-oxo-4-(pyridin-3-ylmethyl)pyrido[3,4-d]pyridazin-2(1H)-yl)acetamide]"
16,10 to 30,"CCc1ccc(N(CC)C(=O)Cn2nc(Cc3cccnc3)c3ncccc3c2=O)cc1 [Example 43, N-ethyl-N-(4-ethylphenyl)-2-(5-oxo-8-(pyridin-3-ylmethyl)pyrido[2,3-d]pyridazin-6(5H)-yl)acetamide]"
17,30 to 80,"CCN(C(=O)Cn1nc(Cc2cccnc2)c2cc(OC)c(OC)cc2c1=O)c1ccc2c(c1)OC(F)(F)O2 [Example 44, N-(2,2-difluorobenzo[d][1,3]dioxol-5-yl)-2-(6,7-dimethoxy-1-oxo-4-(pyridin-3-ylmethyl)phthalazin-2(1H)-yl)-N-ethylacetamide]"
18,> 80,"CCN(C(=O)Cn1nc(Cc2cccnc2)c2ccc(C)cc2c1=O)c1ccc2c(c1)OC(F)(F)O2 [Example 45, N-(2,2-difluorobenzo[d][1,3]dioxol-5-yl)-N-ethyl-2-(7-methyl-1-oxo-4-(pyridin-3-ylmethyl)phthalazin-2(1H)-yl)acetamide]"
19,30 to 80,"CCN(C(=O)Cn1nc(Cc2cccnc2)c2cc(C)ccc2c1=O)c1ccc2c(c1)OC(F)(F)O2 [Example 46, N-(2,2-difluorobenzo[d][1,3]dioxol-5-yl)-N-ethyl-2-(6-methyl-1-oxo-4-(pyridin-3-ylmethyl)phthalazin-2(1H)-yl)acetamide]"
20,30 to 80,"CCN(C(=O)Cn1nc(Cc2cccnc2)c2cccc(C)c2c1=O)c1ccc2c(c1)OC(F)(F)O2 [Example 47, N-(2,2-difluorobenzo[d][1,3]dioxol-5-yl)-N-ethyl-2-(8-methyl-1-oxo-4-(pyridin-3-ylmethyl)phthalazin-2(1H)-yl)acetamide]"
21,30 to 80,"CCN(C(=O)Cn1nc(Cc2cccnc2)c2c(C)cccc2c1=O)c1ccc2c(c1)OC(F)(F)O2 [Example 48, N-(2,2-difluorobenzo[d][1,3]dioxol-5-yl)-N-ethyl-2-(5-methyl-1-oxo-4-(pyridin-3-ylmethyl)phthalazin-2(1H)-yl)acetamide]"
22,> 80,"CCN(C(=O)Cn1nc(Cc2cccnc2)c2cc(C(C)(C)C)ccc2c1=O)c1ccc2c(c1)OC(F)(F)O2 [Example 49, 2-(6-(tert-butyl)-1-oxo-4-(pyridin-3-ylmethyl)phthalazin-2(1H)-yl)-N-(2,2-difluorobenzo[d][1,3]dioxol-5-yl)-N-ethylacetamide]"
23,> 80,"CCN(C(=O)Cn1nc(Cc2cccnc2)c2ccc(C(C)(C)C)cc2c1=O)c1ccc2c(c1)OC(F)(F)O2 [Example 50, 2-(7-(tert-butyl)-1-oxo-4-(pyridin-3-ylmethyl)phthalazin-2(1H)-yl)-N-(2,2-difluorobenzo[d][1,3]dioxol-5-yl)-N-ethylacetamide]"
24,30 to 80,"CCN(C(=O)Cn1nc(Cc2cccnc2)c2cc(OC)ccc2c1=O)c1ccc2c(c1)OC(F)(F)O2 [Example 51, N-(2,2-difluorobenzo[d][1,3]dioxol-5-yl)-N-ethyl-2-(6-methoxy-1-oxo-4-(pyridin-3-ylmethyl)phthalazin-2(1H)-yl)acetamide]"
25,30 to 80,"CCN(C(=O)Cn1nc(Cc2cccnc2)c2ccc(OC)cc2c1=O)c1ccc2c(c1)OC(F)(F)O2 [Example 52, N-(2,2-difluorobenzo[d][1,3]dioxol-5-yl)-N-ethyl-2-(7-methoxy-1-oxo-4-(pyridin-3-ylmethyl)phthalazin-2(1H)-yl)acetamide]"

# Same assay, conditions: FRT cells expressing human F508del CFTR and YFP
row,EC50 [µM],SMILES
1,< 10,"CCc1ccc(N(CC)C(=O)Cn2nc(Cc3cccnc3)c3cc(Cl)c(Cl)cc3c2=O)cc1 [Example 38, 2-(6,7-dichloro-1-oxo-4-(pyridin-3-ylmethyl)phthalazin-2(1H)-yl)-N-ethyl-N-(4-ethylphenyl)acetamide]"
2,> 20,"CCc1ccc(N(CC)C(=O)Cn2nc(Cc3cccnc3)c3ccc(Cl)cc3c2=O)cc1 [Example 39, 2-(7-chloro-1-oxo-4-(pyridin-3-ylmethyl)phthalazin-2(1H)-yl)-N-ethyl-N-(4-ethylphenyl)acetamide]"
3,< 10,"CCc1ccc(N(CC)C(=O)Cn2nc(Cc3cccnc3)c3ccncc3c2=O)cc1 [Example 41, N-ethyl-N-(4-ethylphenyl)-2-(4-oxo-1-(pyridin-3-ylmethyl)pyrido[3,4-d]pyridazin-3(4H)-yl)acetamide]"
4,> 20,"CCc1ccc(N(CC)C(=O)Cn2nc(Cc3cccnc3)c3ncccc3c2=O)cc1 [Example 43, N-ethyl-N-(4-ethylphenyl)-2-(5-oxo-8-(pyridin-3-ylmethyl)pyrido[2,3-d]pyridazin-6(5H)-yl)acetamide]"
5,10 to 20,"CCN(C(=O)Cn1nc(Cc2cccnc2)c2cc(OC)c(OC)cc2c1=O)c1ccc2c(c1)OC(F)(F)O2 [Example 44, N-(2,2-difluorobenzo[d][1,3]dioxol-5-yl)-2-(6,7-dimethoxy-1-oxo-4-(pyridin-3-ylmethyl)phthalazin-2(1H)-yl)-N-ethylacetamide]"

# From patent US10370366B2 (Flatley Discovery Lab, LLC, priority 2013, dated 2019)
